Measurements taken from article PMC5704987 (Fetal and pediatric pathology, 2017).
“And” between values parts separate entries of the source, which are not always exact repeats. Equal values may be shown once. Read-outs that look alike come from different tables or passages of the source. Blank lines part the entries; values can stand above or below the molecule they belong to.

Columns and labels:
[1] = In vitro in vivo extrapolation to maternal liver; parameters: species or system human
[2] = Progesterone metabolism in pooled human liver microsomes
recombinant human CYP3A5 = recombinant human CYP3A5 (Homo sapiens, UniProt P20815); conditions: recombinant enzyme, pH 7.4
[3] = biological target: T1, recombinant CYP19A1 (aromatase) (Homo sapiens, UniProt P11511); assay: Progesterone incubation with recombinant CYP19A1; assay type: in vitro ADME; conditions: progesterone 100 μM, CYP19A1 25 pmol, data not shown
T1 sequence (P11511 1-503): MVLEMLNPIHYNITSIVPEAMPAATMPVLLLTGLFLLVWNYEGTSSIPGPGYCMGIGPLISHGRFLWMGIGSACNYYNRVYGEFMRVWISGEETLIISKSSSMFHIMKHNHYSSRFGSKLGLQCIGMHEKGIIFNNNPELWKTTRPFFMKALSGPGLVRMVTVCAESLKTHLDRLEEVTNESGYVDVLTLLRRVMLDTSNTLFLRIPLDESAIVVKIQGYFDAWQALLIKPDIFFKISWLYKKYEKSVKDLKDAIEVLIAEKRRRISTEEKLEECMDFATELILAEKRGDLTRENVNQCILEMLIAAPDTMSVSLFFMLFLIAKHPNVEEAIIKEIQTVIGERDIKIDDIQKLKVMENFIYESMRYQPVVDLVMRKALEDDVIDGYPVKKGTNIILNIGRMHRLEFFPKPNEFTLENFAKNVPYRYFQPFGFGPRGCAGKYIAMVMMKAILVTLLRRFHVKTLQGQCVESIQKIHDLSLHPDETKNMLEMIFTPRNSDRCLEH

in vitro = conditions: human
[4] = In vitro in vivo extrapolation to fetal liver; parameters: species or system human
[5] = human, microsomes, pH 7.4
recombinant CYP2A6 = biological target: T2, recombinant CYP2A6 (Homo sapiens, UniProt P11509); assay: Progesterone incubation with recombinant CYP2A6; assay type: in vitro ADME; conditions: recombinant CYP2A6, data not shown
T2 sequence (P11509 1-494): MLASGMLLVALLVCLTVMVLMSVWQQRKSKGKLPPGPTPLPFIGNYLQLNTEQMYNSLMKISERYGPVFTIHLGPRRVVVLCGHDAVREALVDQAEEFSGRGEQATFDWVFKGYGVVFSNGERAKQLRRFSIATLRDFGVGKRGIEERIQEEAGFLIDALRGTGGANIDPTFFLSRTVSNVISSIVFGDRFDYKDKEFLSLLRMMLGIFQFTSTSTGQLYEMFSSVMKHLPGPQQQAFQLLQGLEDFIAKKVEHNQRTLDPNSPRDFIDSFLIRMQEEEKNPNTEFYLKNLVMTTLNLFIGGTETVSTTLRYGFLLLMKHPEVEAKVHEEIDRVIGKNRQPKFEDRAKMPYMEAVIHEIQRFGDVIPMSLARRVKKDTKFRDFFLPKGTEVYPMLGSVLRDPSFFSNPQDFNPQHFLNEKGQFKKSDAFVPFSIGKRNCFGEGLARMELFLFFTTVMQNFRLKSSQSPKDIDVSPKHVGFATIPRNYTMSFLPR

recombinant human CYP3A4 = recombinant human CYP3A4 (Homo sapiens, UniProt P08684); conditions: pH 7.4
CYP17A1 = conditions: microsomes from CYP17A1-transfected COS1 cells; ref [11]; cited from earlier work
[6] = test system: oxytocin-induced uterine contractility; conditions: murine model, preliminary work by the group; ref [10]; cited from earlier work
[7] = substrate: CC(=O)[C@H]1CC[C@H]2[C@@H]3CCC4=CC(=O)CC[C@]4(C)[C@H]3CC[C@]12C
not read = substrate: CC(=O)[C@H]1CC[C@H]2[C@@H]3CCC4=CC(=O)CC[C@]4(C)[C@H]3CC[C@]12C; assay: not read; conditions: other: rCYP3A5 20 pmol, progesterone 20–250 μM; mean ± SE (95% CI); pH 7.4
[8] = Maternal, CYP3A5*0*0 (nonexpresser)
[9] = HLMs 0.5 mg/mL, progesterone 20–250 μM, 30 min, mean ± SE
[10] = Fetal, CYP3A5*0*0 (nonexpresser)

Sequence of recombinant human CYP3A4 (P08684 2-503 limits assumed): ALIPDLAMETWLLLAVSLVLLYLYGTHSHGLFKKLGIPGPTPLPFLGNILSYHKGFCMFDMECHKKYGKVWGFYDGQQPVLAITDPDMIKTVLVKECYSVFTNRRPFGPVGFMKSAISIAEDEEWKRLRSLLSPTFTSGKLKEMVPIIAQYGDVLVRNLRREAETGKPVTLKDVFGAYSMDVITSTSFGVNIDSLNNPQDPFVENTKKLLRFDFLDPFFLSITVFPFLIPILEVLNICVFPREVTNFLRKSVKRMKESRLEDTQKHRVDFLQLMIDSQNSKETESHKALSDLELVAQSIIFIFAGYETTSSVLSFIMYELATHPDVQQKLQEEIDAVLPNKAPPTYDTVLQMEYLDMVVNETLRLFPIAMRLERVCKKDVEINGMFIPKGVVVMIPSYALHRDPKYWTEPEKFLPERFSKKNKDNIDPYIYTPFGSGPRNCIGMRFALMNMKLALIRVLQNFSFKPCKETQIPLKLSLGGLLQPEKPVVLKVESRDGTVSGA

6β-OHP CLf [1, 8]: 624 L/h
16α-OHP CLf [1, 8]: 346 L/h
CLint, H [1, 8]: 970 L/h
6β-OHP formation relative to 16α-OHP ([1]; maternal, CYP3A5 expressers): 2 fold
reduction in clearance of progesterone in CYP3A5 nonexpressers ([1]; maternal, vs CYP3A5 expressers): 5%
activity (CLint) for 6β-OHP, CYP3A5 relative to CYP3A7 (recombinant human CYP3A5): 23 fold
formation of 6β-OHP and 16α-OHP metabolites [3]: minimal formation
Km at 30 min (in vitro; pH 7.4, Km for formation of 6β-OHP): 27.7 ± 8.1 µM
Km at 30 min (in vitro; pH 7.4, Km for formation of 16α-OHP): 29.8 ± 5.7 µM
6β-OHP formed, fetuses expressing active CYP3A5 relative to nonexpressers [4]: ~ 3 times
clearance from fetal liver relative to maternal liver [4]: less than 0.1%
6β-OHP CLf [4, 10]: 0.19 L/h
16α-OHP CLf [4, 10]: 0.13 L/h
CLint, H [4, 10]: 0.32 L/h
intrinsic clearance (CLint), 6β-OHP formation [5]: 59.2 μL/min/mg protein
metabolite formation (recombinant CYP2A6): did not produce detectable metabolites
6β-OHP CLint (recombinant human CYP3A4; recombinant enzyme): 2.3 μL/min/pmol protein
enzymatic activity (CLint) for 6β-OHP, CYP3A4 relative to CYP3A5 (recombinant human CYP3A4; recombinant enzyme): 25 fold
Molecule: CC(=O)[C@H]1CC[C@H]2[C@@H]3CCC4=CC(=O)CC[C@]4(C)[C@H]3CC[C@]12C [progesterone, Progesterone]
Vmax for formation of 6β-OHP [2, 9]: 1640±111 pmol/min/mg protein
Vmax for formation of 16α-OHP [2, 9]: 192.1 ± 8.9 pmol/min/mg protein
6β-OHP Vmax (recombinant human CYP3A4): 22.3 ± 1.1 (20.1–24.6) pmol/min/pmol protein
Vmax for 16α-OHP formation (CYP17A1): 0.12 nmol/h/mg protein
Vmax for 17α-OHP formation (CYP17A1): 0.46 nmol/h/mg protein

Molecule: CC(=O)[C@H]1CC[C@H]2[C@@H]3C[C@@H](O)C4=CC(=O)CC[C@]4(C)[C@H]3CC[C@]12C [6β-OHP, 6β-hydroxyprogesterone]
further metabolism on incubation with HLMs ([2]; metabolite incubated with HLMs, data not shown): did not yield additional metabolism products
effect on oxytocin-induced uterine contractility frequency [6]: increased

Molecule: CC(=O)[C@H]1[C@H](O)C[C@H]2[C@@H]3CCC4=CC(=O)CC[C@]4(C)[C@H]3CC[C@@]21C [16α-OHP, 16α-hydroxyprogesterone]
effect on oxytocin-induced uterine contractility frequency [6]: decreased

B1: recombinant human CYP3A7 (Homo sapiens) (protein)
chain: MDLIPNLAVETWLLLAVSLILLYLYGTRTHGLFKKLGIPGPTPLPFLGNALSFRKGYWTFDMECYKKYRKVWGIYDCQQPMLAITDPDMIKTVLVKECYSVFTNRRPFGPVGFMKNAISIAEDEEWKRIRSLLSPTFTSGKLKEMVPIIAQYGDVLVRNLRREAETGKPVTLKHVFGAYSMDVITSTSFGVSIDSLNNPQDPFVENTKKLLRFNPLDPFVLSIKVFPFLTPILEALNITVFPRKVISFLTKSVKQIKEGRLKETQKHRVDFLQLMIDSQNSKDSETHKALSDLELMAQSIIFIFAGYETTSSVLSFIIYELATHPDVQQKVQKEIDTVLPNKAPPTYDTVLQLEYLDMVVNETLRLFPVAMRLERVCKKDVEINGMFIPKGVVVMIPSYVLHHDPKYWTEPEKFLPERFSKKNKDNIDPYIYTPFGSGPRNCIGMRFALVNMKLALVRVLQNFSFKPCKETQIPLKLRFGGLLLTEKPIVLKAESRDETVSGA
Km [7]: 43.8 ± 31.0 (6.4–199) μM and 44.4 ± 23.5 (15.1–116) μM
kcat [7]: 0.00167 s⁻¹ and 0.00333 s⁻¹
kcat/Km [7]: 50 M⁻¹ s⁻¹ and 66.7 M⁻¹ s⁻¹

B2: recombinant human CYP3A5 (Homo sapiens) (protein)
chain: MDLIPNLAVETWLLLAVSLVLLYLYGTRTHGLFKRLGIPGPTPLPLLGNVLSYRQGLWKFDTECYKKYGKMWGTYEGQLPVLAITDPDVIRTVLVKECYSVFTNRRSLGPVGFMKSAISLAEDEEWKRIRSLLSPTFTSGKLKEMFPIIAQYGDVLVRNLRREAEKGKPVTLKDIFGAYSMDVITGTSFGVNIDSLNNPQDPFVESTKKFLKFGFLDPLFLSIILFPFLTPVFEALNVSLFPKDTINFLSKSVNRMKKSRLNDKQKHRLDFLQLMIDSQNSKETESHKALSDLELAAQSIIFIFAGYETTSSVLSFTLYELATHPDVQQKLQKEIDAVLPNKAPPTYDAVVQMEYLDMVVNETLRLFPVAIRLERTCKKDVEINGVFIPKGSMVVIPTYALHHDPKYWTEPEEFRPERFSKKKDSIDPYIYTPFGTGPRNCIGMRFALMNMKLALIRVLQNFSFKPCKETQIPLKLDTQGLLQPEKPIVLKVDSRDGTLSGE
Km (not read): 72.5 ± 24.3 (19.5–125) μM and 60.2 ± 11.9 (40.2–89.7) μM
kcat (not read): 0.00367 s⁻¹
kcat/Km (not read): 50 M⁻¹ s⁻¹
